Measurements: article PMC6027051, “Polymer–Surfactant System Based Amorphous Solid Dispersion: Precipitation Inhibition and Bioavailability Enhancement of Itraconazole” (Pharmaceutics, 2018)
Values after ≈ are worked out from the molar mass of the structure shown. Read-outs that look alike come from different tables or passages of the source.

Tests used:
Format in all cases: physicochemical
[1] = Nucleation induction time measurement (turbidity at 490 nm, plate reader) in SIF; conditions: supersaturated ITZ solution by solvent shift (DMSO stock into SIF), absorbance 490 nm
Protocol: Supersaturation stability is commonly evaluated by measuring the induction time for nucleation, which is defined as the time lag for the appearance of the observable crystals. In this study, the precipitation induction time of different formulations were obtained by determining the changes in turbidity using plate reader detection technique. Supersaturated ITZ solutions were prepared by the solvent shift method. All the samples were dissolved in dimethyl sulfoxide (DMSO) to obtain ITZ stock solution at a concentration of 1mg/mL, then the stock solution was added into SIF and stirred constantly to generate a supersaturated solution. Immediately, 300 μL of individual supersaturated solution was transferred into a 96-well polypropylene plate and the optical density value of each well was measured at 490 nm using plate reader (Bio-Tek, Winooski, VT, USA). […] Thus, the turbidity was the only contributor to the changed absorbance. The samples were also shaken before the measurement and each formulation was detected in triplicate. All the analyses and calculations were carried out using Gen 5.0 (Bio-Tek, Winooski, VT, USA).

[2] = Supersaturation dissolution test with pH-shift (SGF to SIF, USP paddle method)
Protocol: In order to simulate the drug peristalsis in vivo situation, a transfer of simulated gastric fluid (SGF) to SIF was conducted for in vitro dissolution experiment. Supersaturation dissolution tests were performed according to USP 29 Apparatus 2 guidelines (paddle method) with a ZRS-8G dissolution tester (TDTF, Tianjin, China). Briefly, samples containing equivalent amounts of ITZ (45 mg) were subjected to each dissolution vessel containing SGF (750 mL of 0.1 N HCl) for 2 h, followed by pH adjustment to 6.8 by the addition of 250 mL of 0.2 M tribasic sodium phosphate (Na3PO4) for additional 3 h. The dissolution media was kept at 37.0 ± 0.5 °C and the paddle speed was maintained at 100 rpm throughout the test procedure. Aliquot samples (5 mL) were withdrawn at predetermined time intervals (120, 125, 150, 180, 240, and 300 min). The samples were filtered through a […] millipore filter and the first few drops were discarded. The filtrate was immediately diluted with methanol to prevent the precipitation. The ITZ concentration was assayed by ultraviolet spectrophotometry (TU-1901, Beijing Purkinje General Instrument Co., Ltd., Beijing, China) at a wavelength of 263 nm. The calibration curve of ITZ in UV spectrophotometry was shown in Figure 1B with a concentration range of 0.25–80 μg/mL. […]

[3] = Equilibrium solubility of ITZ in SIF with or without surfactant (shaking flask method); conditions: for solubility thermodynamic at 48 h: 37 °C, n = 3, read-out: ITZ Concentration in SIF (equilibrium solubility)
Protocol: An excess amount of ITZ was added to SIF with or without pre-dissolved surfactant (1 mg/mL) and mixed by vortex for 2 min. After incubation in a shaking incubator at 37 °C for 48 h, the suspension was centrifuged (15,000 rpm for 10 min) and filtered through a 0.22 μm Millipore filter (Jinteng Experimental Equipment Co., Ltd, Tianjin, China). Prior to assay by high performance liquid (HPLC) (Shimadzu Corporation, Kyoto, Japan) using a PhenomenexC18 column (4.6 × 250 mm, 5 μm), the filtrate was diluted 1:1 with mobile phase. The mobile phase was consisted of 0.5% diisopropylamine in methanol and 0.1% ammonium acetate in distilled water (80:20) with a rate of 1.0 mL/min. The effluent was monitored at an ultraviolet-visible (UV) absorption wavelength of 263 nm. The retention time of ITZ under these conditions was 4.9 min. Calibration curve (Figure 1A) were linear over a concentration range of 0.04–40 μg/mL. The limit of quantitation (LOQ) and limit of detection (LOD) was 25 ng and 10 ng, respectively. Each equilibrium solubility test was performed in triplicate.

ITZ released after 2 h in SGF ([2]; SGF (0.1 N HCl), 120 min, 37 °C, 45 mg ITZ): 3% | Cumulative release amount after pH change to 6.8 (rapid precipitation, eventually dropped to) ([2]; SIF pH 6.8, precipitation from five minutes after the pH change): < 1% | solubility thermodynamic at 48 h ([3]; SIF with Poloxamer 188 1 mg/mL, pH 6.8, SIF pH 6.8 with Poloxamer 188 1 mg/mL): 0.92 ± 0.27 µg/mL (≈ 1.3 µM) | solubility thermodynamic at 48 h ([3]; SIF with SDS 1 mg/mL, pH 6.8, SIF pH 6.8 with SDS 1 mg/mL): 1.66 ± 0.53 µg/mL (≈ 2.35 µM) | solubility thermodynamic at 48 h ([3]; SIF with Soluplus 1 mg/mL, pH 6.8, SIF pH 6.8 with Soluplus 1 mg/mL): 0.1 ± 0.06 µg/mL (≈ 0.142 µM) | solubility thermodynamic at 48 h ([3]; SIF with TPGS 1 mg/mL, pH 6.8, SIF pH 6.8 with TPGS 1 mg/mL): 4.83 ± 0.81 µg/mL (≈ 6.84 µM) | Increase of equilibrium solubility in the presence of TPGS over SIF ([3]; SIF with TPGS vs SIF alone): approximately 580 fold | solubility thermodynamic at 48 h ([3]; SIF with Tween 80 1 mg/mL, pH 6.8, aqueous with cosolvent or surfactant or cyclodextrin, thermodynamic from solid, SIF pH 6.8 with Tween 80 1 mg/mL): 0.03 ± 0.01 µg/mL (≈ 0.0425 µM) | solubility thermodynamic at 48 h ([3]; SIF with sodium cholate 1 mg/mL, pH 6.8, aqueous with cosolvent or surfactant or cyclodextrin, thermodynamic from solid, SIF pH 6.8 with Sodium cholate 1 mg/mL): 0.07 ± 0.02 µg/mL (≈ 0.0992 µM) | solubility thermodynamic at 48 h ([3]; simulated intestinal fluid (SIF) without surfactant, pH 6.8, fassgf or other biorelevant, thermodynamic from solid, SIF pH 6.8 without surfactant (Blank group)): ~0.008 µg/mL (≈ 0.0113 µM)
Compound: CCC(C)n1ncn(-c2ccc(N3CCN(c4ccc(OCC5COC(Cn6cncn6)(c6ccc(Cl)cc6Cl)O5)cc4)CC3)cc2)c1=O (centres unmarked) [ITZ, Itraconazole]
Turbidity / precipitation behaviour in the absorbance-time curve [1]: rapid increase in the absorbance followed by a gradual decline
